Reference: article PMC10619133, “The catechol moiety of obafluorin is essential for antibacterial activity” (RSC Chemical Biology, 2023)
Converted amounts (≈) assume the structure as drawn. “Also recorded” adds a separate entry of the source. Where two headings read alike, the source gives them in different places.

Columns and labels:
S. aureus = test: Bioassay of control antibiotics with and without additional Fe3+; format: cell-based
Protocol: (§1) The method was the same as for the antibacterial MIC assays described above, with the following modifications: for excess iron, Fe(NO3)3·9H2O stock (400 mM) was added to give a final concentration of 1.5 or 2.0 mM; for iron depletion, bipy stock (1 M) was added to give a final concentration of 150 μM. For MRSA, 1 was further diluted to 0.5 0.25 and 0.125 μg mL^−1 due to a decrease in MIC under excess iron conditions. The general effect of excess iron on the activity of alternative antibiotics was determined by performing a similar serial dilution of carbenicillin, kanamycin, streptomycin, nitrofurantoin and chloramphenicol in the presence of Fe^3+.

E. coli 25922 = test: Spot-on-lawn MIC bioassay; format: cell-based, E. coli ATCC 25922; details: for lowest concentration which gave an inhibition zone: - Fe3+; for MIC: Escherichia coli, 25922, spot-on-lawn
Protocol: (§2) Indicator strains were grown for 16–18 h in LB (5 mL) by inoculation from a single colony. An aliquot of the resulting culture (500 μL) was then used to inoculate LB (50 mL in 250 mL Erlenmeyer flasks), followed by orbital shaking at 250 rpm until they reached an OD600 of 0.3–0.4. These cultures were then diluted 1 : 10 with molten soft nutrient agar (SNA), before pouring into appropriately sized Petri dishes to set. Serial dilutions of the test compounds (from 256 μg mL^−1 to 1 μg mL^−1 plus an additional sample at 1000 μg mL^−1) were prepared in acetonitrile (ACN), and 4 μL of each sample was applied directly onto the SNA surface. Kanamycin (50 μg mL^−1), apramycin (50 μg mL^−1) or aureobasidin A (0.2 μg mL^−1) were used as positive controls, as appropriate, and ACN or water (4 μL) were used as negative controls. […] Experiments were carried out in at least triplicate for each strain.
as §1

PfThrRS = PfThrRS (Pseudomonas fluorescens, UniProt C3JZN7); test: Aminoacylation assay; format: biochemical, P. fluorescens; details: for IC100: read-out: concentration of full inhibition
Protocol: (§3) To measure the effects of 1–4 on ThrRS canonical tRNA charging activity, an assay modified from that reported by Ruan et al.[53] was used, where active enzyme was incubated with its necessary substrates and its activity measured using ^14C labeled Thr and a liquid scintillation counter. Purified ThrRS protein (10 nM) was pre-incubated with varying concentrations of compounds 1–4 or ACN for 10 min. After pre-incubation, ThrRS samples were added to a master reaction mixture with the final component concentrations of HEPES (100 mM, pH 7.0), ATP (4 mM), MgCl2 (10 mM), L-[U-^14C]threonine (50 μM, Moravek Inc.), and tRNA^Thr (5 μM). This mixture was incubated at room temperature for 10 min, with samples taken at 1, 2.5, 5, and 10 min. At each time point, a 7 μL aliquot was spotted onto a 5% trichloroacetic acid (TCA) presoaked 3 MM Whatman paper (Cytiva) squares (repeated in triplicate). After allowing the spots to dry, the Whatman paper was washed three times with 5% TCA, and once with 95% EtOH. The Whatman paper was dried and the counts on each square of paper analyzed using a Tri-Carb 2910 TR liquid scintillation counter using Hydrofluor Liquid Scintillation Fluid (National Diagnostics). To calculate IC50 values, fractional initial velocities (velocity of inhibited reaction/velocity in the absence of inhibitor) were plotted against the log of 1 concentration and then fitted to eqn (1), using GraphPad Prism.1 [drawing 1]

MRSA = test: Spot-on-lawn MIC bioassay; format: cell-based, Methicillin-resistant Staphylococcus aureus; details: spot-on-lawn; for MIC: Staphylococcus aureus, MRSA; for antibacterial activity (in words): Fig. S13
Protocol: as §2, §1

S. cerevisiae = test: Spot-on-lawn MIC bioassay; format: cell-based, S. cerevisiae NCYC 2939; details: Saccharomyces cerevisiae
Protocol: as §2

B. subtilis = test: Spot-on-lawn MIC bioassay; format: cell-based, B. subtilis EC 1524; details: Bacillus subtilis
Protocol: as §2

[1] = Hydrolysis of the β-lactone in HEPES buffer monitored by HPLC; format: physicochemical; details: for effect of added Fe^3+ on hydrolysis (in words): Fe^3+ 1 mM, HEPES 100 mM, pH 6.0–8.0, 30 min; for hydrolysis of β-lactone (in words): pH 8.0, HEPES 100 mM, 30 min, no Fe^3+
Protocol: Hydrolysis of 1–4 was analysed on an Agilent 1290 system fitted with an Agilent LC/MSD MS spectrometer. A Kinetex XB-C18, 100 × 4.6 mm, 5 μM column (Phenomenex) was used with a gradient elution: ACN/0.1% (v/v) FA (H2O) gradient from 5/95 for 0–0.5 min, 5/95 to 98/2 0.5–12 min, 98/2 for 12–13 min, gradient to 5/95 13–13.5 min and 5/95 for 13.5–15 min. The flow rate was 0.6 mL min^−1 and the injection volume of each sample 5 μL. DAD signals were analysed at 270 nm, with a bandwidth of 4 nm. MS were recorded in positive mode using an atmospheric pressure ionisation electrospray (API-ES) ion source with a capillary voltage of 3000 V. The drying gas temperature was 350 °C with a flow rate of 12 L min^−1. The scan parameters were: mass range = 200–1500; fragmentor = 70; gain EMV = 1.0; threshold = 150; step-size = 0.10. Data were analysed with Agilent ChemStation software.
Five solutions of HEPES buffer (111 mM) were prepared at pH 6.0, 6.5, 7.0, 7.5 and 8.0 respectively. A further five solution of HEPES buffer (111 mM) with Fe(NO3)3.9H2O ([…]) were also prepared at pH 6.0, 6.5, 7.0, 7.5, 8.0 respectively. Stock solutions of 1–4 (10 mM) were prepared in DMSO. For each hydrolysis experiment, stock solution of 1–4 (10 μL) was added the HEPES buffer (90 μL) or the HEPES + Fe(NO3)3.9H2O buffer (90 μL), to give final concentrations of HEPES (100 mM), 1–4 (1 mM) and Fe^3+ (0 or 1 mM). The reaction mixtures were shaken using a bench top vortex and left to stand for 30 min, after which the samples were analysed by HPLC using the Analytical HPLC method. All stock solutions of 1–4 were tested at every pH, with and without Fe^3+ and all experiments were repeated in triplicate.

E. coli NR698 = test: Spot-on-lawn MIC bioassay; format: cell-based; details: Escherichia coli
Protocol: as §2

EcThrRS = molecular target: T1, EcThrRS (Escherichia coli, UniProt P0A8M3); test: Aminoacylation assay; format: biochemical, E. coli; details: for concentration at which complete inhibition was observed / IC50: enzyme 10 nM; for IC50: 10 min preincubation with compound; for fold less potent than 1: ratio of IC50 values
T1 construct: His6 (N); made in house; host or cells: E. coli NiCo21(DE3)
Protocol: as §3

[2] = Figure S8 legend, read-out: Minimum inhibitory concentration
[3] = standard conditions, read-out: MIC
[4] = Figure S12 legend, read-out: Minimum inhibitory concentration
[5] = Figure S9 legend, read-out: Minimum inhibitory concentration
[6] = Figure S10 legend, read-out: Minimum inhibitory concentration
[7] = NR698, read-out: Minimum inhibitory concentration

PfThrRS, sequence (C3JZN7 whole entry): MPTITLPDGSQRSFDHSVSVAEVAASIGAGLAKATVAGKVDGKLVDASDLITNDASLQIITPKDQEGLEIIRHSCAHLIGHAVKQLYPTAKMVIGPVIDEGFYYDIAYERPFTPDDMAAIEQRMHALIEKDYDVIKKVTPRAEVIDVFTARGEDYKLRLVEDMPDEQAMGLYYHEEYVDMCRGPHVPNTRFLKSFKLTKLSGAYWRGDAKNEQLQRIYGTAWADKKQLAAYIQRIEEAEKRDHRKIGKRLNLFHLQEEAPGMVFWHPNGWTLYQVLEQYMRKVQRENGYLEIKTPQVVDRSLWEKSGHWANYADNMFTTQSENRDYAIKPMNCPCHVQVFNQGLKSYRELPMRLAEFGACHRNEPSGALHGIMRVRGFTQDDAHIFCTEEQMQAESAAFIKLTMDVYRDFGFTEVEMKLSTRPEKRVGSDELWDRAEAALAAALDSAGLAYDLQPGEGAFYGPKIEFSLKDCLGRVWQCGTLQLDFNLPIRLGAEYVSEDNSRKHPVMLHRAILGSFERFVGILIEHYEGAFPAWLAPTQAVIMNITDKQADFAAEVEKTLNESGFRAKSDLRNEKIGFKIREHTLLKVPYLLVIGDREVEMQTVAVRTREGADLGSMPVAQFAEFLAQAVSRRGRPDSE
T1 sequence (P0A8M3 whole entry): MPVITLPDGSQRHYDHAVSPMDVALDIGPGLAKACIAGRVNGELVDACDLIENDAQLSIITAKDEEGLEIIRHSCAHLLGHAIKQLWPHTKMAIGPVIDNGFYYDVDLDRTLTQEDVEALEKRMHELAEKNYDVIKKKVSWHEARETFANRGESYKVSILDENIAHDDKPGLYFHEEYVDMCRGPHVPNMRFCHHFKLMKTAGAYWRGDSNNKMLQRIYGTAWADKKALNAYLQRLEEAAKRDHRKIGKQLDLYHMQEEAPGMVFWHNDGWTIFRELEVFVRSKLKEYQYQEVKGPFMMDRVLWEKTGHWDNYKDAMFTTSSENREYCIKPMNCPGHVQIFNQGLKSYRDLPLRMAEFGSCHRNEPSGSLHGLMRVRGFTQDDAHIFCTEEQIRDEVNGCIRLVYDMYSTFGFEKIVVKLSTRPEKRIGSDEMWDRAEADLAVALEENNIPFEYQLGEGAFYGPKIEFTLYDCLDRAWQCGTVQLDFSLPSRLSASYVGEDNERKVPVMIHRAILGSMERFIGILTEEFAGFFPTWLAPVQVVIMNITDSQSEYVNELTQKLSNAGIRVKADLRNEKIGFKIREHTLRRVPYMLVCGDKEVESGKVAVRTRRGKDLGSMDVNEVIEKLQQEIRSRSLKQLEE

With CC1(C)S[C@@H]2[C@H](NC(=O)C(C(=O)O)c3ccccc3)C(=O)N2[C@H]1C(=O)O (some centres unmarked) [Carbenicillin, carbenicillin, reference compound] the “lowest concentration which gave an inhibition zone” value (S. aureus) was 50 µg/mL and the “lowest concentration which gave an inhibition zone” value (E. coli 25922) was 1000 µg/mL.
In the case of O=C(N[C@@H]1C(=O)O[C@@H]1Cc1ccc([N+](=O)[O-])cc1)c1ccccc1O [compound 2, 2-HBA-obafluorin], the IC100 (PfThrRS; enzyme 10 nM) is reported as 10 µM, the MIC (MRSA; [2]) is reported as 1000 µg/mL (≈ 2920 µM) and the MIC (MRSA; [3]) is reported as over 1000 µg/mL. For the same compound, the MIC (S. cerevisiae; [4]) was over 1000 µg/mL, the MIC (S. cerevisiae; [3]) was over 1000 µg/mL and the MIC (B. subtilis; [5]) was 1000 µg/mL (≈ 2920 µM). It also gave an MIC (B. subtilis; [3]) of 1000 µg/mL (≈ 2920 µM), an MIC (E. coli 25922; [6]) of over 1000 µg/mL and an MIC (E. coli 25922; [3]) of over 1000 µg/mL. For the same compound, the “effect of added Fe^3+ on hydrolysis (in words)” value [1] was “no effect”, the “hydrolysis of β-lactone (in words)” value [1] was “mainly hydrolysed” and the MIC (E. coli NR698; NR698) was 1000 µg/mL (≈ 2920 µM). The MIC (E. coli NR698; [7]) was over 1000 µg/mL, the “concentration at which complete inhibition was observed” value (EcThrRS) was 10 000 nM and the IC50 (EcThrRS; read-out: IC50) was 3700 ± 700 nM. For the same compound, the “fold less potent than 1” value (EcThrRS) was “approximately 100 fold”.
For O=C(N[C@H](C(=O)O)[C@H](O)Cc1ccc([N+](=O)[O-])cc1)c1ccccc1 [compound 7, β-lactone hydrolysed BA-obafluorin], the “antibacterial activity (in words)” value (MRSA) was “inactive”.
O=C(N[C@@H]1C(=O)O[C@@H]1Cc1ccc([N+](=O)[O-])cc1)c1cccc(O)c1 [compound 3, 3-HBA-obafluorin] showed an IC100 (PfThrRS; enzyme 10 nM) of 5 µM, an MIC (MRSA; [2]) of 1000 µg/mL (≈ 2920 µM) and an MIC (MRSA; [3]) of 1000 µg/mL (≈ 2920 µM). The MIC (S. cerevisiae; [4]) was over 1000 µg/mL, the MIC (S. cerevisiae; [3]) was over 1000 µg/mL and the MIC (B. subtilis; [5]) was 1000 µg/mL (≈ 2920 µM). For the same compound, the MIC (B. subtilis; [3]) was 1000 µg/mL (≈ 2920 µM), the MIC (E. coli 25922; [6]) was over 1000 µg/mL and the MIC (E. coli 25922; [3]) was over 1000 µg/mL. The “effect of added Fe^3+ on hydrolysis (in words)” value [1] was “no effect”, the “hydrolysis of β-lactone (in words)” value [1] was “mainly hydrolysed” and the MIC (E. coli NR698; NR698) was over 1000 µg/mL. For the same compound, the MIC (E. coli NR698; [7]) was over 1000 µg/mL, the “concentration at which complete inhibition was observed” value (EcThrRS) was 5000 nM and the IC50 (EcThrRS; read-out: IC50) was 930 ± 80 nM. For the same compound, the “fold less potent than 1” value (EcThrRS) was about 30 fold.
With O=C1CN(/N=C/c2ccc([N+](=O)[O-])o2)C(=O)N1 [Nitrofurantoin, nitrofurantoin, reference compound] the “lowest concentration which gave an inhibition zone” value (S. aureus) was 500 µg/mL and the “lowest concentration which gave an inhibition zone” value (E. coli 25922) was 500 µg/mL.
For CN[C@@H]1[C@@H](O[C@H]2O[C@H](CO)[C@@H](N)[C@H](O)[C@H]2O)OC2C[C@@H](N)[C@@H](O[C@H]3[C@H](O)[C@@H](O)[C@H](N)C[C@@H]3N)OC2[C@@H]1O (some centres unmarked) [Apramycin, apramycin, reference compound], the “lowest concentration which gave an inhibition zone” value (S. aureus) was 50 µg/mL and the “lowest concentration which gave an inhibition zone” value (E. coli 25922) was 50 µg/mL.
For [H]/N=C(/N)N[C@H]1[C@H](O)[C@@H](O)[C@H](O[C@@H]2O[C@@H](C)[C@](O)(C=O)[C@H]2O[C@@H]2O[C@@H](CO)[C@H](O)[C@@H](O)[C@@H]2NC)[C@@H](N/C(N)=N\[H])[C@@H]1O [Streptomycin, streptomycin, reference compound], the “lowest concentration which gave an inhibition zone” value (S. aureus) was 50 µg/mL and the “lowest concentration which gave an inhibition zone” value (E. coli 25922) was 50 µg/mL.
For O=C(N[C@H](CO)[C@H](O)c1ccc([N+](=O)[O-])cc1)C(Cl)Cl [Chloramphenicol, chloramphenicol, reference compound], the “lowest concentration which gave an inhibition zone” value (S. aureus) was 1000 µg/mL and the “lowest concentration which gave an inhibition zone” value (E. coli 25922) was 1000 µg/mL.
In the case of O=C(N[C@H](C(=O)O)[C@H](O)Cc1ccc([N+](=O)[O-])cc1)c1cccc(O)c1O [compound 5, β-lactone hydrolysed obafluorin], the “antibacterial activity (in words)” value (MRSA) is reported as “inactive”.
In the case of COC(=O)[C@@H](NC(=O)c1cccc(O)c1O)[C@H](O)Cc1ccc([N+](=O)[O-])cc1 [compound 6, β-lactone methanolysed obafluorin], the “antibacterial activity (in words)” value (MRSA) is reported as “inactive”.
For O=C(N[C@@H]1C(=O)O[C@@H]1Cc1ccc([N+](=O)[O-])cc1)c1ccccc1 [compound 4, BA-obafluorin], the IC50 (PfThrRS; enzyme 10 nM, 10 min preincubation with compound) was “not inhibited; also recorded: No inhibition”, the “inhibition of aminoacylation (in words)” value (PfThrRS; up to 25000 nM) was “no significant inhibition” and the MIC (MRSA; [2]) was over 1000 µg/mL. It also gave an MIC (MRSA; [3]) of 1000 µg/mL (≈ 3060 µM), an MIC (S. cerevisiae; [4]) of over 1000 µg/mL and an MIC (S. cerevisiae; [3]) of over 1000 µg/mL. The MIC (B. subtilis; [5]) was over 1000 µg/mL, the MIC (B. subtilis; [3]) was over 1000 µg/mL and the MIC (E. coli 25922; [6]) was over 1000 µg/mL. The MIC (E. coli 25922; [3]) was over 1000 µg/mL, the “hydrolysis of β-lactone (in words)” value [1] was “no hydrolysis; also recorded: stable to hydrolysis” and the MIC (E. coli NR698; NR698) was over 1000 µg/mL. The MIC (E. coli NR698; [7]) was over 1000 µg/mL, the IC50 (EcThrRS) was “No inhibition” and the “inhibition of aminoacylation (in words)” value (EcThrRS; up to the highest concentration tested (0–25 μM)) was “no significant inhibition”.
For NC[C@H]1O[C@H](O[C@H]2[C@H](O)[C@@H](O[C@H]3O[C@H](CO)[C@@H](O)[C@H](N)[C@H]3O)[C@H](N)C[C@@H]2N)[C@H](O)[C@@H](O)[C@@H]1O [Kanamycin, kanamycin, reference compound], the “lowest concentration which gave an inhibition zone” value (S. aureus) was 50 µg/mL and the “lowest concentration which gave an inhibition zone” value (E. coli 25922) was 50 µg/mL.
